# In paper PMC1242219, “Anthracyclines, proteasome activity and multi-drug-resistance” (BMC Cancer, 2005):
# Read-outs that look alike come from different tables or passages of the source. Peptide text beside a SMILES is read from it. * marks the point of attachment. Cbz = O=C(OCc1ccccc1)*
# What was measured:
# 26S proteasome = biological target: T1, 26S proteasome (Homo sapiens, UniProt P28074); assay: Chymotrypsin-like 26S proteasome function in crude cell extracts (SucLLVY-AMC fluorogenic peptide assay); format: biochemical; conditions: for Effect on 26S proteasome function: data not shown; for Chymotryptic 26S Proteasome Activity in Lysates from ECV 304 Cells: activity relative to 0 μM = 1, mean ± SEM
# T1 construct: endogenous in cells; host or cells: ECV304 cells, crude extract
# T1 sequence (P28074 60-263): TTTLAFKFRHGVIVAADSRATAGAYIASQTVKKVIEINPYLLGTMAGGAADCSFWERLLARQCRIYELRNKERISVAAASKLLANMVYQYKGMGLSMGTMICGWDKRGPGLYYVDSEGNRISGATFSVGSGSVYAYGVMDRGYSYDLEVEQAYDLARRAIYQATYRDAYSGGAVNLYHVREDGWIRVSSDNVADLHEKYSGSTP
# Experimental: (§1) 20S and 26S proteasome function was measured as described previously (20). Briefly, cells were washed with PBS, then with buffer I (50 mM Tris, pH 7.4, 2 mM DTT, 5 mM MgCl2, 2 mM ATP), and pelleted by centrifugation. Glass beads and homogenization buffer (50 mM Tris, pH 7.4, 1 mM DTT, 5 mM MgCl2, 2 mM ATP, 250 mM sucrose) were added and vortexed for 1 minute. Beads and cell debris were removed by centrifugation at 1,000 × g for 5 minutes and 10,000 × g for 20 minutes. Protein concentration was determined by the BCA protocol (Pierce). One hundred μg protein of each sample was diluted with buffer I to a final volume of 1000 μl and the fluorogenic proteasome substrate SucLLVY-7-amido-4-methylcoumarin (chymotrypsin-like, Sigma) was added in a final concentration of 80 μM in 1% DMSO. To access 20S function, buffer I was replaced by an ATP-free buffer containing SDS (20 mM HEPES, pH 7.8; 0.5 mM EDTA, 0.03% SDS). Cleavage activity was monitored continuously by detection of free 7-amido-4-methylcoumarin using a fluorescence plate reader (Gemini, Molecular Devices) at 380/460 nm and 37°C. As controls for drug studies, 7-amido-4-methylcoumarin (AMC, 2 μM) was incubated with drugs in buffer I without cell extracts and measurements of proteasome function were corrected when necessary.
# 20S proteasome = biological target: T2, 20S proteasome (Homo sapiens, UniProt P28074); assay: Chymotrypsin-like 20S proteasome function in crude cell extracts (ATP-free buffer with SDS, SucLLVY-AMC); format: biochemical
# T2 construct: Chymotryptic 20S Proteasome Activity in Lysates from ECV 304 Cells; endogenous in cells; host or cells: ECV304 cells, crude extract
# T2 sequence (P28074 60-263): T1 sequence (P28074 60-263)
# Experimental: as §1
# [1] = tested on: proteasome function (Ub-GFP accumulation) in ECV304/10 cells; assay: Proteasome function in living ECV304/10 cells stably transfected with Ub-R-GFP fusion protein (fluorescence microscopy); format: cell-based, human; conditions: 100 μM
# Experimental: ECV304 cells were plated at a density of 250.000 cells/well into six-well plates twelve hours before transfection. Cells were transfected with 5 μg of a plasmid (pEGFP-N1, Clontech) coding for an ubiquitin (Ub)-R-GFP fusion protein under control of a CMV promoter (a kind gift from Dr. M. Masucci, Karolinska Institute, Sweden) using the Superfect transfection kit (Qiagen) and following the manufacturer's instructions. Transfected cells were maintained in DMEM (10 % FSC, 1 % penicillin/streptomycin) supplemented with 500 μg/ml G418 (Sigma) and clones were obtained.
# KB 8.5 cells = assay: Apoptosis / morphological toxicity of KB 8.5 cells treated with MG-132; format: cell-based, human
# Text: The human epitheloid carcinoma cell line KB 8-5 is a well-characterized tumor cell line that over-expresses mdr-1 with associated MDR.
# P-glycoprotein = biological target: T3, P-glycoprotein (Homo sapiens, UniProt P08183); assay: Drug accumulation assay: daunorubicin fluorescence in P-gp overexpressing KB 8-5 cells; format: cell-based; conditions: different doses of MG-132 (0, 6.25, 12.5, 25, 50 μM), daunorubicin 10 μM, 45 minutes
# T3 construct: accumulation of daunorubicin in KB 8-5 cells that overexpress P-glycoprotein; endogenous in cells; host or cells: KB 8.5 (KB 8-5) cells, maintained under colchicine selection
# T3 sequence (P08183 whole entry): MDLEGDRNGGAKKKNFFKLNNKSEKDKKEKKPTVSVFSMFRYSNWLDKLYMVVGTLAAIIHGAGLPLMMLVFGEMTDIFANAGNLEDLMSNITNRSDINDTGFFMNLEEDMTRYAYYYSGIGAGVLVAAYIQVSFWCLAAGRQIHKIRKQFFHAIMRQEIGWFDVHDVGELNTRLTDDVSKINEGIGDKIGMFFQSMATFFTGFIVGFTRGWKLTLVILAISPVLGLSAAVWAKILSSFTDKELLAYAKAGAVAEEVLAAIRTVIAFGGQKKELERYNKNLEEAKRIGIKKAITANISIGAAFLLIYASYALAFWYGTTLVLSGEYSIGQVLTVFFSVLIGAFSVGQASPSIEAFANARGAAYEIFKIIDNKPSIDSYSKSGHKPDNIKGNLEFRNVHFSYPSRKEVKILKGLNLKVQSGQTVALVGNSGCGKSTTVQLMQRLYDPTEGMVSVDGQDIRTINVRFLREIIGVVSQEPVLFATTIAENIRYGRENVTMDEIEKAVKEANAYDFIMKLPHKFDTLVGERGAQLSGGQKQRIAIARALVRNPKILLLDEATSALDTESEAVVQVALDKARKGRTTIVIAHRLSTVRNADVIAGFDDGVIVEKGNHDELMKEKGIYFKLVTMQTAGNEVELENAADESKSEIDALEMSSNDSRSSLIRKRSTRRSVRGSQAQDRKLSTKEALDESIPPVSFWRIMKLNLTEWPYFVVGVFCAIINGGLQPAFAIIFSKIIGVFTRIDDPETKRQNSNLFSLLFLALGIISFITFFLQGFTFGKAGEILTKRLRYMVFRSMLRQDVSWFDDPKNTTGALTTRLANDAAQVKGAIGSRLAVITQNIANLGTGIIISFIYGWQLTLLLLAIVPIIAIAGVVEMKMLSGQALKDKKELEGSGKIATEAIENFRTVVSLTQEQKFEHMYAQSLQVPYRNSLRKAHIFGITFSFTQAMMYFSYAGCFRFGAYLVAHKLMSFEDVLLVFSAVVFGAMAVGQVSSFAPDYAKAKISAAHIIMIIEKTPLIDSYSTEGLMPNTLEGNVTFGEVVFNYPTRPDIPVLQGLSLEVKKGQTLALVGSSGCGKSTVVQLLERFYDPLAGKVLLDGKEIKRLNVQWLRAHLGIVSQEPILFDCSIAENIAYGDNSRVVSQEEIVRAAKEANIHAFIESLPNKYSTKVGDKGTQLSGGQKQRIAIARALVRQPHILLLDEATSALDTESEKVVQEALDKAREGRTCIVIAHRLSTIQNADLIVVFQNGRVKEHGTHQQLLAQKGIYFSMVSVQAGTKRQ
# Experimental: Every 21 days P-gp-positive KB 8.5 cells were selected by addition of colchicine (10 ng/ml, Sigma). 24 hours before drug treatment cells were plated into 6-well plates (Costar) at a density of 10^6 cells/well.
# Growth medium on cells was replaced by PBS for 40 minutes at 37°C. […] After drug treatment, the cells were washed twice with PBS, re-suspended in either 4 ml lysis buffer (0.3 M sucrose, 0.05 mM EGTA pH 8.0, 60 mM KCl, 15 mM NaCl, 15 mM HEPES pH 7.5, 150 μM spermine, 50 μM spermidine) containing 20 μl triton X-100 for nuclear isolation or 400 μl of 50% ethanol in 1 M HCl (v/v) for whole cell lysis. For the latter, cells were vortexed and diluted with water to a final volume of 1.4 ml. The cells in lysis buffer were mixed and left on ice for 15 minutes before centrifuging. The nuclei (pellet) were then vortexed with 400 μl HCl/isopropanol.
# ECV304 cells = assay: Drug accumulation assay: doxorubicin in cytoplasm and nuclear fraction of ECV304 cells; format: cell-based, human; conditions: MG-132 25 μM
# Experimental: Stock solutions of all cytotoxic drugs were obtained from the hospital pharmacy of the University Clinic Freiburg. […] Control cells were subjected to DMSO treatment alone (0.5 %).
# Growth medium on cells was replaced by PBS for 40 minutes at 37°C. This was replaced by fresh PBS containing daunorubicin or doxorubicin and MG-132 or anthracyclines alone. […] After drug treatment, the cells were washed twice with PBS, re-suspended in either 4 ml lysis buffer (0.3 M sucrose, 0.05 mM EGTA pH 8.0, 60 mM KCl, 15 mM NaCl, 15 mM HEPES pH 7.5, 150 μM spermine, 50 μM spermidine) containing 20 μl triton X-100 for nuclear isolation or 400 μl of 50% ethanol in 1 M HCl (v/v) for whole cell lysis. For the latter, cells were vortexed and diluted with water to a final volume of 1.4 ml. The cells in lysis buffer were mixed and left on ice for 15 minutes before centrifuging. The nuclei (pellet) were then vortexed with 400 μl HCl/isopropanol.
# [2] = 6.25 μM, activity relative to 0 μM = 1, mean ± SEM
# [3] = 25 μM, activity relative to 0 μM = 1, mean ± SEM
# [4] = 50 μM, activity relative to 0 μM = 1, mean ± SEM
# [5] = 100 μM, activity relative to 0 μM = 1, mean ± SEM
# [6] = crude extracts of ECV304 cells, 0 – 100 μM drug, read-out: IC50, inhibition of 26S proteasome function
compound,measurement,setting,value
CO[C@@]12[C@H](COC(N)=O)C3=C(C(=O)C(C)=C(N)C3=O)N1C[C@@H]1N[C@@H]12 [mitomycin C],Effect on 26S proteasome function,26S proteasome; crude extracts of ECV304 cells,no measurable effect
COc1cccc2c1C(=O)c1c(O)c3c(c(O)c1C2=O)C[C@@](O)(C(=O)CO)C[C@@H]3O[C@H]1C[C@H](N)[C@@H](O)[C@H](C)O1 [epirubicin],IC50,20S proteasome,12.5 µM
same,IC50,26S proteasome,29.2 µM
COc1cccc2c1C(=O)c1c(O)c3c(c(O)c1C2=O)C[C@@](O)(C(=O)CO)C[C@@H]3O[C@H]1C[C@H](N)[C@H](O)[C@H](C)O1 [doxorubicin],IC50,20S proteasome,5.8 µM
same,GFP accumulation indicating inhibition of proteasome function in living cells,"[1]; ECV304/10 cells, 12 hours",GFP accumulated throughout the cytoplasm
same,IC50,26S proteasome,65.5 µM
COc1cccc2c1C(=O)c1c(O)c3c(c(O)c1C2=O)C[C@@](O)(C(C)=O)C[C@@H]3O[C@H]1C[C@H](N)[C@H](O)[C@H](C)O1 [daunorubicin],Chymotryptic 20S Proteasome Activity in Lysates from ECV 304 Cells,20S proteasome,0.64 ± 0.07 n.s.
same,Chymotryptic 20S Proteasome Activity in Lysates from ECV 304 Cells,20S proteasome; [2],0.62 ± 0.19 n.s.
same,Chymotryptic 20S Proteasome Activity in Lysates from ECV 304 Cells,20S proteasome; [3],0.81 ± 0.05 n.s.
same,Chymotryptic 20S Proteasome Activity in Lysates from ECV 304 Cells,20S proteasome; [4],0.95 ± 0.04 n.s.
same,Chymotryptic 20S Proteasome Activity in Lysates from ECV 304 Cells,20S proteasome; [5],1.05 ± 0.1 n.s.
same,Inhibition of 20S proteasome function,"20S proteasome; crude extracts of ECV304 cells, up to 100 μM",not
same,GFP accumulation indicating proteasome inhibition in living cells,"[1]; ECV304 Ub-GFP cells, 16 h (Figure 2 legend)",accumulation of GFP throughout the cytoplasm
same,Chymotryptic 26S Proteasome Activity in Lysates from ECV 304 Cells,26S proteasome; 6.25 μM,0.85 ± 0.05
same,Chymotryptic 26S Proteasome Activity in Lysates from ECV 304 Cells,26S proteasome; 12.5 μM,0.53 ± 0.11
same,Chymotryptic 26S Proteasome Activity in Lysates from ECV 304 Cells,26S proteasome; 25 μM,0.22 ± 0.09
same,Chymotryptic 26S Proteasome Activity in Lysates from ECV 304 Cells,26S proteasome; 50 μM,0.12 ± 0.06
same,Chymotryptic 26S Proteasome Activity in Lysates from ECV 304 Cells,26S proteasome; 100 μM,0.11 ± 0.06
same,IC50,26S proteasome; [6],13.7 µM
"CC[C@@]1(O)C(=O)OCc2c1cc1n(c2=O)Cc2cc3c(CN(C)C)c(O)ccc3nc2-1 [Topotecan, topotecan]",Effect on 26S proteasome function,26S proteasome; crude extracts of ECV304 cells,no measurable effect
CC(C)C[C@@H](C=O)NC(=O)[C@H](CC(C)C)NC(=O)[C@H](CC(C)C)NC(=O)OCc1ccccc1 [MG-132] (Cbz-Leu-Leu-Leu-aldehyde),Morphological signs of toxicity,"KB 8.5 cells; KB 8-5 cells, 50 μM, 45 minutes of incubation",no morphological signs of toxicity
same,Induction of apoptosis,"KB 8.5 cells; KB 8.5 cells, 3.125 to 50 μM, within 24 hours, preliminary experiments",induced apoptosis
same,Accumulation of daunorubicin in KB 8-5 cells,P-glycoprotein,"increased, dose-dependent accumulation of daunorubicin"
same,Uptake of doxorubicin in the cytoplasm and in the nuclear fraction,ECV304 cells,increased uptake of doxorubicin
Nc1ccn([C@@H]2O[C@H](CO)[C@@H](O)C2(F)F)c(=O)n1 [gemcitabine],Effect on 26S proteasome function,26S proteasome; crude extracts of ECV304 cells,no measurable effect
CC(=O)[C@]1(O)Cc2c(O)c3c(c(O)c2[C@@H](O[C@H]2C[C@H](N)[C@H](O)[C@H](C)O2)C1)C(=O)c1ccccc1C3=O [idarubicin],Chymotryptic 20S Proteasome Activity in Lysates from ECV 304 Cells,20S proteasome; [2],0.67 ± 0.07
same,Chymotryptic 20S Proteasome Activity in Lysates from ECV 304 Cells,"20S proteasome; 12.5 μM, activity relative to 0 μM = 1, mean ± SEM",0.67 ± 0.08
same,Chymotryptic 20S Proteasome Activity in Lysates from ECV 304 Cells,20S proteasome; [3],0.69 ± 0.05
same,Chymotryptic 20S Proteasome Activity in Lysates from ECV 304 Cells,20S proteasome; [4],0.67 ± 0.05
same,Chymotryptic 20S Proteasome Activity in Lysates from ECV 304 Cells,20S proteasome; [5],0.49 ± 0.11
same,IC50,20S proteasome; crude extracts of ECV304 cells,92 µM
same,Chymotryptic 26S Proteasome Activity in Lysates from ECV 304 Cells,26S proteasome; 6.25 μM,0.97 ± 0.03 n.s.
same,Chymotryptic 26S Proteasome Activity in Lysates from ECV 304 Cells,26S proteasome; 12.5 μM,0.96 ± 0.02 n.s.
same,Chymotryptic 26S Proteasome Activity in Lysates from ECV 304 Cells,26S proteasome; 25 μM,0.79 ± 0.12 n.s.
same,Chymotryptic 26S Proteasome Activity in Lysates from ECV 304 Cells,26S proteasome; 50 μM,0.28 ± 0.09
same,Chymotryptic 26S Proteasome Activity in Lysates from ECV 304 Cells,26S proteasome; 100 μM,0.1 ± 0.06
same,IC50,26S proteasome; [6],38.6 µM
